Key:
Experiment in all cases: relative viability (nuclei count vs DMSO), 5 days (fraction); higher = more cells survive
[1] = compound: CC1=C(C(=O)N2C=CSC2=N1)CCN3CCC(=C(C4=CC=CC=C4)C5=CC=C(C=C5)F)CC3 + COc1cccc2cc(-c3nc([C@H]4CC[C@H](C(=O)O)CC4)n4ncnc(N)c34)[nH]c12 [OSI-027] (partner 0.5 µM)
In short: (§1)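 The day after seeding in 1536-well plates, lung cancer cell lines were treated by pin tool with a single drug, or with a fixed anchor-drug dose together with five library-drug doses (not always all listed) in √10 steps. After 5 days, a combined fix-and-stain solution (final 0.05% Triton X-100, 1% formaldehyde, 1 ug/ml Hoechst) was added. Nuclei counted on 4× images gave relative viability as treated counts over vehicle counts, reported as the median of duplicate plates.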

[2] = compound: CC1=C(C(=O)N2C=CSC2=N1)CCN3CCC(=C(C4=CC=CC=C4)C5=CC=C(C=C5)F)CC3 + CC(=O)Nc1cccc(-n2c(=O)n(C3CC3)c(=O)c3c(Nc4ccc(I)cc4F)n(C)c(=O)c(C)c32)c1 [Trametinib] (partner 0.02 µM)
In short: as §1

[3] = compound: CC1=C(C(=O)N2C=CSC2=N1)CCN3CCC(=C(C4=CC=CC=C4)C5=CC=C(C=C5)F)CC3 + N=C(N)NC(=N)NCCc1ccccc1 [Phenformin] (partner 250 µM)
In short: as §1

[4] = compound: CC1=C(C(=O)N2C=CSC2=N1)CCN3CCC(=C(C4=CC=CC=C4)C5=CC=C(C=C5)F)CC3 + C[C@@H](Oc1cc(-c2cnn(C3CCNCC3)c2)cnc1N)c1c(Cl)ccc(F)c1Cl [Crizotinib] (partner 1 µM)
In short: as §1

Cell Line: NCI-H650
- relative viability ([1]; first compound 0.08 µM): 0.513
- relative viability ([1]; first compound 0.253 µM): 0.489
- relative viability ([1]; first compound 0.8 µM): 0.551
- relative viability ([1]; first compound 2.53 µM): 0.504
- relative viability ([1]; first compound 8 µM): 0.531
- relative viability ([2]; first compound 0.08 µM): 0.997
- relative viability ([2]; first compound 0.253 µM): 0.891
- relative viability ([2]; first compound 0.8 µM): 0.986
- relative viability ([2]; first compound 2.53 µM): 1.07
- relative viability ([2]; first compound 8 µM): 0.932
- relative viability ([3]; first compound 0.08 µM): 0.404
- relative viability ([3]; first compound 0.253 µM): 0.521
- relative viability ([3]; first compound 0.8 µM): 0.421
- relative viability ([3]; first compound 2.53 µM): 0.497
- relative viability ([3]; first compound 8 µM): 0.404
- relative viability ([4]; first compound 0.253 µM): 0.791
- relative viability ([4]; first compound 0.8 µM): 0.377
- relative viability ([4]; first compound 2.53 µM): 0.718
- relative viability ([4]; first compound 8 µM): 0.608

Cell Line: NCI-H661
- relative viability ([1]; first compound 0.08 µM): 0.618
- relative viability ([1]; first compound 0.253 µM): 0.659
- relative viability ([1]; first compound 0.8 µM): 0.691
- relative viability ([1]; first compound 2.53 µM): 0.712
- relative viability ([1]; first compound 8 µM): 0.627
- relative viability ([2]; first compound 0.08 µM): 0.49
- relative viability ([2]; first compound 0.253 µM): 0.486
- relative viability ([2]; first compound 0.8 µM): 0.525
- relative viability ([2]; first compound 2.53 µM): 0.518
- relative viability ([2]; first compound 8 µM): 0.462
- relative viability ([3]; first compound 0.08 µM): 0.242
- relative viability ([3]; first compound 0.253 µM): 0.268
- relative viability ([3]; first compound 0.8 µM): 0.277
- relative viability ([3]; first compound 2.53 µM): 0.297
- relative viability ([3]; first compound 8 µM): 0.291
- relative viability ([4]; first compound 0.08 µM): 0.848
- relative viability ([4]; first compound 0.253 µM): 1.01
- relative viability ([4]; first compound 0.8 µM): 1.21
- relative viability ([4]; first compound 2.53 µM): 1
- relative viability ([4]; first compound 8 µM): 0.801

Cell Line: NCI-H727
- relative viability ([1]; first compound 0.08 µM): 0.52
- relative viability ([1]; first compound 0.253 µM): 0.51
- relative viability ([1]; first compound 0.8 µM): 0.527
- relative viability ([1]; first compound 2.53 µM): 0.638
- relative viability ([1]; first compound 8 µM): 0.45
- relative viability ([2]; first compound 0.08 µM): 0.342
- relative viability ([2]; first compound 0.253 µM): 0.365
- relative viability ([2]; first compound 0.8 µM): 0.366
- relative viability ([2]; first compound 2.53 µM): 0.397
- relative viability ([2]; first compound 8 µM): 0.39
- relative viability ([3]; first compound 0.08 µM): 0.593
- relative viability ([3]; first compound 0.253 µM): 0.55
- relative viability ([3]; first compound 0.8 µM): 0.481
- relative viability ([3]; first compound 2.53 µM): 0.464
- relative viability ([3]; first compound 8 µM): 0.47
- relative viability ([4]; first compound 0.08 µM): 0.846
- relative viability ([4]; first compound 0.253 µM): 0.934
- relative viability ([4]; first compound 0.8 µM): 0.741
- relative viability ([4]; first compound 2.53 µM): 0.948
- relative viability ([4]; first compound 8 µM): 0.59

Cell Line: NCI-H838
- relative viability ([1]; first compound 0.08 µM): 0.445
- relative viability ([1]; first compound 0.253 µM): 0.339
- relative viability ([1]; first compound 0.8 µM): 0.37
- relative viability ([1]; first compound 2.53 µM): 0.454
- relative viability ([1]; first compound 8 µM): 0.352
- relative viability ([2]; first compound 0.08 µM): 0.391
- relative viability ([2]; first compound 0.253 µM): 0.558
- relative viability ([2]; first compound 0.8 µM): 0.565
- relative viability ([2]; first compound 2.53 µM): 0.617
- relative viability ([2]; first compound 8 µM): 0.24
- relative viability ([3]; first compound 0.08 µM): 0.629
- relative viability ([3]; first compound 0.253 µM): 0.533
- relative viability ([3]; first compound 0.8 µM): 0.569
- relative viability ([3]; first compound 2.53 µM): 0.576
- relative viability ([3]; first compound 8 µM): 0.464
- relative viability ([4]; first compound 0.08 µM): 0.583
- relative viability ([4]; first compound 0.253 µM): 0.854
- relative viability ([4]; first compound 0.8 µM): 0.837
- relative viability ([4]; first compound 2.53 µM): 0.925
- relative viability ([4]; first compound 8 µM): 0.616

Cell Line: NCI-H1355
- relative viability ([1]; first compound 0.08 µM): 0.377
- relative viability ([1]; first compound 0.253 µM): 0.405
- relative viability ([1]; first compound 0.8 µM): 0.355
- relative viability ([1]; first compound 2.53 µM): 0.421
- relative viability ([1]; first compound 8 µM): 0.424
- relative viability ([2]; first compound 0.08 µM): 0.49
- relative viability ([2]; first compound 0.253 µM): 0.444
- relative viability ([2]; first compound 0.8 µM): 0.407
- relative viability ([2]; first compound 2.53 µM): 0.408
- relative viability ([2]; first compound 8 µM): 0.421
- relative viability ([3]; first compound 0.08 µM): 0.428
- relative viability ([3]; first compound 0.253 µM): 0.442
- relative viability ([3]; first compound 0.8 µM): 0.441
- relative viability ([3]; first compound 2.53 µM): 0.427
- relative viability ([3]; first compound 8 µM): 0.391
- relative viability ([4]; first compound 0.08 µM): 1.12
- relative viability ([4]; first compound 0.253 µM): 1.16
- relative viability ([4]; first compound 0.8 µM): 1.04
- relative viability ([4]; first compound 2.53 µM): 1.17
- relative viability ([4]; first compound 8 µM): 0.712

Cell Line: NCI-H1437
- relative viability ([1]; first compound 0.08 µM): 0.978
- relative viability ([1]; first compound 0.253 µM): 0.879
- relative viability ([1]; first compound 0.8 µM): 0.836
- relative viability ([1]; first compound 2.53 µM): 1.08
- relative viability ([1]; first compound 8 µM): 0.631
- relative viability ([2]; first compound 0.08 µM): 0.385
- relative viability ([2]; first compound 0.253 µM): 0.56
- relative viability ([2]; first compound 0.8 µM): 0.588
- relative viability ([2]; first compound 2.53 µM): 0.601
- relative viability ([2]; first compound 8 µM): 0.28
- relative viability ([3]; first compound 0.08 µM): 0.303
- relative viability ([3]; first compound 0.253 µM): 0.362
- relative viability ([3]; first compound 0.8 µM): 0.334
- relative viability ([3]; first compound 2.53 µM): 0.288
- relative viability ([3]; first compound 8 µM): 0.308
- relative viability ([4]; first compound 0.253 µM): 0.902
- relative viability ([4]; first compound 0.8 µM): 0.978
- relative viability ([4]; first compound 2.53 µM): 1.03
- relative viability ([4]; first compound 8 µM): 0.604

Cell Line: NCI-H1650
- relative viability ([1]; first compound 0.08 µM): 0.539
- relative viability ([1]; first compound 0.253 µM): 0.736
- relative viability ([1]; first compound 0.8 µM): 0.583
- relative viability ([1]; first compound 2.53 µM): 0.561
- relative viability ([1]; first compound 8 µM): 0.353
- relative viability ([2]; first compound 0.08 µM): 0.513
- relative viability ([2]; first compound 0.253 µM): 0.532
- relative viability ([2]; first compound 0.8 µM): 0.483
- relative viability ([2]; first compound 2.53 µM): 0.722
- relative viability ([2]; first compound 8 µM): 0.412
- relative viability ([3]; first compound 0.08 µM): 0.494
- relative viability ([3]; first compound 0.253 µM): 0.345
- relative viability ([3]; first compound 0.8 µM): 0.383
- relative viability ([3]; first compound 2.53 µM): 0.58
- relative viability ([3]; first compound 8 µM): 0.314
- relative viability ([4]; first compound 0.08 µM): 0.892
- relative viability ([4]; first compound 0.253 µM): 1.14
- relative viability ([4]; first compound 0.8 µM): 0.957
- relative viability ([4]; first compound 2.53 µM): 1.01
- relative viability ([4]; first compound 8 µM): 0.872

Cell Line: NCI-H1651
- relative viability ([1]; first compound 0.08 µM): 0.71
- relative viability ([1]; first compound 0.253 µM): 0.768
- relative viability ([1]; first compound 0.8 µM): 0.698
- relative viability ([1]; first compound 2.53 µM): 0.697
- relative viability ([1]; first compound 8 µM): 0.461
- relative viability ([2]; first compound 0.08 µM): 0.783
- relative viability ([2]; first compound 0.253 µM): 0.915
- relative viability ([2]; first compound 0.8 µM): 0.837
- relative viability ([2]; first compound 2.53 µM): 0.866
- relative viability ([2]; first compound 8 µM): 0.712
- relative viability ([3]; first compound 0.08 µM): 0.341
- relative viability ([3]; first compound 0.253 µM): 0.321
- relative viability ([3]; first compound 0.8 µM): 0.352
- relative viability ([3]; first compound 2.53 µM): 0.304
- relative viability ([3]; first compound 8 µM): 0.283
- relative viability ([4]; first compound 0.08 µM): 0.83
- relative viability ([4]; first compound 0.253 µM): 0.829
- relative viability ([4]; first compound 0.8 µM): 0.891
- relative viability ([4]; first compound 2.53 µM): 0.971
- relative viability ([4]; first compound 8 µM): 0.773
